Results published in patent publication EP1897937A1, “Method of culturing NPCs” (NeuroProgen GmbH Leipzig, priority 2006, dated 2008).

Legend:
Format in all cases: cell-based, human
hmNPCs [1] = experiment: Dopaminergic differentiation: counting of TH-positive cells by immunocytochemistry
Experimental: (§1) To determine long-term proliferation, hmNPCs were plated and expanded for 2 passages with or without addition of various agents (see below) to the custom expansion media containing the growth factors EGF and FGF2. Different fetal midbrain tissues were included in this study. At the end of the proliferation period, differentiation of hmNPCs was induced via replacement of expansion media with mitogen-free media containing 1% FCS, 5 µM forskoline (Sigma-Aldrich Chemie GmbH Munich, Germany), and 100 pg/ml IL-1β (Sigma). The differentiation and expansion media were supplemented with different drugs as appropriate. Prior to immunocytochemistry or protein extraction, hmNPCs were allowed to differentiate for 1 week. To determine short-term proliferation via Ki67 immunostaining, the cells were seeded into 24-well plates (70,000 cells/well) and left overnight to rest. P2 receptor agonists (ATP, UTP, ATP + UTP, ADP, ADPβS) were supplied daily for 5 consecutive days. Ki67/nestin double-positive cells were counted in 8 randomly selected fields of nucleotide-treated or untreated samples. For the assessment of MAPK phosphorylation the cells were kept free of mitogens for 2 d prior to addition of the MEK-inhibitor in expansion media. In addition, the MEK-inhibitor was added during the differentiation period 15 min before UTP administration.
(§2) UTP, UDP, ATP, ADP, ADPβS and suramin were purchased from Sigma (Sigma-Aldrich Chemie GmbH Munich, Germany). UTP and UDP were applied at different concentrations (1 µM, 10 µM, 100 µM), ATP at 100 µM, ADP at 100 µM, and ADPβS at100 µM. During expansion of the cells, the nucleotides were renewed once a week with every media change, unless otherwise stated. They were applied once at the beginning of the differentiation period. The P2 receptor antagonist suramin (10 µM) was added to expansion media 30 min prior to addition of UTP (100 µM). The stock solution of the MEK1/2 inhibitor U0126 (Promega Corporation, Mannheim, Germany) was prepared in dimethyl sulfoxide (DMSO) at a concentration of 10 mM. The stock solution was then diluted in 0.1 M PBS to obtain a concentration of 1 mM. MEK inhibitor (final concentration 10 µM) was added to mitogen-free expansion media, 15 min before UTP treatment (1 µM) of hmNPCs.
Expanded or one week differentiated hmNPCs were fixed with 4% paraformaldehyde in PBS for 10 min at room temperature and washed with PBS, counterstained with the DNA-binding dye 4'-6-Diamidino-2-phenylindole (DAPI, 2 µg/ml in PBS) for 15 min at room temperature, washed twice in PBS followed by incubation in blocking buffer (10% FCS, 0.2% Triton-X 100 in PBS, pH 7.2) for 30 min at room temperature. After incubation with a primary antibody (over night at 4°C in blocking buffer), the cells were incubated with fluorescent secondary antibodies, Alexa Fluor® 488 conjugate or Alexa Fluor® 594 conjugate (Molecular Probes, Eugene, USA). Cover-slips were mounted onto glass slides and examined under a fluorescence microscope (Zeiss Axiovert 200). Acquisition of the cells was performed using the Image-analysis software AxioVision 4 (Carl Zeiss AG, Jena, Germany). The following primary antibodies were used for immunofluorescence: rabbit polyclonal anti-β-tubulin III (anti-Tuj1) antibody, rabbit polyclonal anti-tyrosine hydroxylase antibody , mouse monoclonal anti-nestin antibody (Pharmingen, San Diego, CA, USA), rabbit polyclonal anti-Ki67 antigen antibody (Novocastra Laboratories Ltd, Newcastle upon Tyne, UK). Estimation of the TH-positive cell numbers was performed by counting of cells among approximately 1000 differentiated cells in total within 6 randomly selected fields.

hmNPCs [2] = experiment: Dopaminergic differentiation: TH protein expression by Western blot; conditions: for expression of TH, pre-treatment before UTP: 10 µM pre-treatment, 100 µM UTP, one week of differentiation
Experimental: as §1, §2
(§3) In order to prepare protein extracts, hmNPCs were collected, washed with ice-cold PBS and lysed in buffer [10 mM HEPES-KOH (pH 7.9), 10 mM KCI, 1.5 mM MgCl2, 0.1% NP-40], supplemented with protease inhibitor cocktail (Roche). After a brief centrifugation at 4°C/10 000×g, protein concentrations and protein yield from extracts were determined using the Bradford method (Bio-Rad, Hercules, CA, USA). To preserve the phosphorylation state of proteins, extracts for the MAPK experiment were obtained using the PhosphoSafe™ extraction reagent containing phophatase inhibitors (Novagen). […] Membranes were blocked with 5% (wt/vol) nonfat dry milk in PBS-T (PBS, 0.1% (vol/vol) Tween 20) for 2 h at room temperature and subsequently incubated with the desired primary antibody (diluted in PBS containing 5% non-fat milk and 0.1% Tween 20) overnight at 4 °C with gentle agitation. The membrane was incubated with horseradish peroxidase-coupled secondary antibody for 1 h at room temperature. Chemiluminescence detection was performed by incubating the membranes with SuperSignal-Dura substrate (Pierce Biotechnology, Rockford, U.S.A) followed by analysis on a CCD cooling camera (Fuji LAS-1000plus). The chemiluminescence was quantified using the AIDA, two-dimensional densitometry software (Raytest lsotopenmeb, Straubenhardt, Germany).

hmNPCs [3] = experiment: Cell death / cell cycle assay (propidium iodide, FACS); conditions: for block of the anti-proliferative effects of ATP, ADP and ADPβS: 30 minutes pretreatment, 10 µM suramin or 100 µM PPADS; for Sub-G1 / G0/G1 / G2/M / S: 48 h, 100 µM nucleotides, pretreated 30 minutes with 10 µM suramin or 100 µM PPADS where named; for G0/G1 / G2/M / S: mean ± SEM, n = 3
Experimental: Untreated (control) and treated exponentially growing […] were prepared for cell cycle analysis by lysing cells in 300 μl of hypotonic lysis buffer (0.1% sodium citrate, 0.1% Triton X-100, and 50 μg/ml propidium iodide [PI]). […] Histograms of DNA content were acquired using the CellQuest software. […] For data analysis and correction of the background, noise histograms were processed with the ModFit LT software (Verity, Turramurra, Australia).

ERK1/2 = ERK1/2 (MAPK) phosphorylation by Western blot; conditions: for expression of phosphorylated ERK1/2, pre-treatment before UTP: 10 µM pre-treatment, 100 µM UTP, one week of differentiation
Experimental: as §1, §2
as §3, with “Chemiluminescence detection was performed by incubating the membranes with SuperSignal-Dura substrate (Pierce Biotechnology, Rockford, U.S.A) followed by analysis on a CCD cooling camera (Fuji LAS-1000plus).” left out

hmNPCs [4] = experiment: Short-term proliferation: Ki67/nestin immunostaining; conditions: 100 µM; 5 subsequent days
Experimental: as §1, with “hmNPCs” left out, “μM” for “µM”, “administration. […] Cover-slips were mounted onto glass slides and examined under a fluorescence microscope (Zeiss Axiovert 200). Acquisition of the cells was performed using the Image-analysis software AxioVision 4 (Carl Zeiss AG, Jena, Germany). The following primary antibodies were used for immunofluorescence: rabbit polyclonal anti-β-tubulin III (anti-Tuj1) antibody, rabbit polyclonal anti-tyrosine hydroxylase antibody , mouse monoclonal anti-nestin antibody (Pharmingen, San Diego, CA, USA), rabbit polyclonal anti-Ki67 antigen antibody (Novocastra Laboratories Ltd, Newcastle upon Tyne, UK). Estimation of the TH-positive cell numbers was performed by counting of cells among approximately 1000 differentiated cells in total within 6 randomly selected fields.” for “administration.”

hmNPCs [5] = experiment: Long-term proliferation: number of living cells (hemocytometer, trypan blue exclusion)
Experimental: as §1, §2
Cell counting of control (untreated) and treated hmNPCs was performed using a hemocytometer. Adherent cells were collected by detachment with accutase™ (PAA Laboratories, Pasching, Austria) for 10 min at 37°C. […] The number of total and trypan blue-positive cells was then determined by counting at least 300 cells per sample in a hemocytometer.

hmNPCs [6] = experiment: Dopaminergic differentiation: TH protein expression by Western blot; conditions: pre-treatment with 100 µM antagonist; UTP 1 µM in expansion, 100 µM in differentiation
hmNPCs [7] = experiment: Western blot of proliferation marker PCNA and survival marker Bcl-2; conditions: 100 µM antagonist, 2 times during the 2 weeks proliferation period, before 1 µM UTP
Experimental: as §1
In order to prepare protein extracts, hmNPCs were collected, washed with ice-cold PBS and lysed in buffer [10 mM HEPES-KOH (pH 7.9), 10 mM KCI, 1.5 mM MgCl2, 0.1% NP-40], supplemented with protease inhibitor cocktail (Roche). After a brief centrifugation at 4°C/10 000×g, protein concentrations and protein yield from extracts were determined using the Bradford method (Bio-Rad, Hercules, CA, USA). To preserve the phosphorylation state of proteins, extracts for the MAPK experiment were obtained using the PhosphoSafe™ extraction reagent containing phophatase inhibitors (Novagen). […] The chemiluminescence was quantified using the AIDA, two-dimensional densitometry software (Raytest lsotopenmeb, Straubenhardt, Germany). […]

[8] = 10 µM antagonist 30 min before 100 µM UTP

Cc1ccc(C(=O)Nc2ccc(S(=O)(=O)O)c3cc(S(=O)(=O)O)cc(S(=O)(=O)O)c23)cc1NC(=O)c1cccc(NC(=O)Nc2cccc(C(=O)Nc3cc(C(=O)Nc4ccc(S(=O)(=O)O)c5cc(S(=O)(=O)O)cc(S(=O)(=O)O)c45)ccc3C)c2)c1 [suramin]
number of TH-positive cells, antagonist before UTP (hmNPCs [1]; [8]): reduced
TH protein content, antagonist before UTP (hmNPCs [2]; [8]): decreased
expression of TH, pre-treatment before UTP (hmNPCs [2]): remained at basal levels
block of the anti-proliferative effects of ATP, ADP and ADPβS (hmNPCs [3]): failed to block
expression of phosphorylated ERK1/2, pre-treatment before UTP (ERK1/2): remained at basal levels

Nc1ncnc2c1ncn2[C@@H]1O[C@H](COP(=O)(O)OP(=O)(O)OP(=O)(O)O)[C@@H](O)[C@H]1O [ATP, adenosine triphosphate]
Ki67-positive cells (hmNPCs [4]): strong reduction
Sub-G1 (hmNPCs [3]): 0.56%
G0/G1 (hmNPCs [3]): 91.69 ± 1.19%
G2/M (hmNPCs [3]): 1.42 ± 0.11%
S (hmNPCs [3]): 6.89 ± 1.17%

Nc1ncnc2c1ncn2[C@@H]1O[C@H](COP(=O)(O)OP(=O)(O)O)[C@@H](O)[C@H]1O [ADP, adenosine diphosphate]
activity at 100 µM (hmNPCs [1]; Homo sapiens, 168 h, 100 µM each, once, only during the differentiation period of one week, read-out: number of TH-positive (dopaminergic) cells as compared to control): 11 ± 3%
Ki67-positive cells (hmNPCs [4]): strong reduction
Sub-G1 (hmNPCs [3]): 0.54%
G0/G1 (hmNPCs [3]): 84.64 ± 0.41%
G2/M (hmNPCs [3]): 3.72 ± 0.20%
S (hmNPCs [3]): 11.63 ± 0.2%
number of living cells (hmNPCs [5]; 100 µM each, 2 weeks in expansion media, on coapplication ADP 30 min before UTP, 20160 min): 4 ± 0.5%

N#CC(=C(/N)Sc1ccccc1N)/C(C#N)=C(\N)Sc1ccccc1N [U0126]
expression of TH, pre-treatment before UTP (hmNPCs [2]): remained at basal levels
UTP-induced phosphorylation of ERK1/2, inhibitor pretreatment (ERK1/2; 10 µM inhibitor for 15 min before 1 µM UTP): abrogated
expression of phosphorylated ERK1/2, pre-treatment before UTP (ERK1/2): remained at basal levels
proliferation of hmNPCs (hmNPCs [5]; data not shown): reduced

Nc1ncnc2c1ncn2[C@@H]1O[C@H](COP(=O)(O)OP(O)(O)=S)[C@@H](O)[C@H]1O [ADPβS]
Ki67-positive cells (hmNPCs [4]): strong reduction
Sub-G1 (hmNPCs [3]): 0.82%
G0/G1 (hmNPCs [3]): 84.21 ± 0.06%
G2/M (hmNPCs [3]): 3.61 ± 0.01%
S (hmNPCs [3]): 12.17 ± 0.05%

Cc1nc(N=Nc2ccc(S(=O)(=O)O)cc2S(=O)(=O)O)c(COP(=O)(O)O)c(C=O)c1O [PPADS, Pyridoxal-phosphate-6-azophenyl-2',4'-disulphonic acid]
TH expression increase by UTP, antagonist pre-treatment (hmNPCs [6]): completely blocked
PCNA expression, antagonist before UTP (hmNPCs [7]): reduced the PCNA expression to control levels
block of the anti-proliferative effects of ATP, ADP and ADPβS (hmNPCs [3]): failed to block

O=c1ccn([C@@H]2O[C@H](COP(=O)(O)OP(=O)(O)O)[C@@H](O)[C@H]2O)c(=O)[nH]1 [UDP, uridine 5'-diphosphate]
TH protein levels (hmNPCs [2]; 100 µM during the differentiation period): no increase
activity at 1 µM (hmNPCs [2]; Homo sapiens, 1 µM during the differentiation period, read-out: TH expression in immunoblots): 194 ± 7%
activity at 10 µM (hmNPCs [2]; Homo sapiens, 10 µM during the differentiation period, read-out: TH expression in immunoblots): 180 ± 8%
